From a melting point compilation (Tetko et al.; mined from patent text by program, amines drawn as free bases though some values may be those of a salt)

| SMILES | melting point [°C] |
| --- | --- |
| Cn1cc2c(n1)CCCc1c-2cnn1C | 176 to 178 |
| C=CCc1c(NC(=O)C(F)(F)F)ccc2c(=O)cc(C(=O)OCC)oc12 | 136 to 137 |
| CCOC(=O)c1nc2n(c(=O)c1OCc1ccccc1)CCCC2 | 151 |
| Cc1[nH]c(=S)[nH]c1-c1cc(C(C)(C)C)c(O)c(C(C)(C)C)c1 | 288 to 290 |
| C=CCOC(=O)C(CCn1c(=O)c2c(ncn2C)n(C)c1=O)N(C)S(=O)(=O)c1ccc(Oc2ccccc2)cc1 (configuration not stated) | 207 to 209 |
| O=C(CN1CCCC1=O)NCC(=O)Nc1ccncc1 | 243 to 245 |
| CC(C)(C)OC(=O)Nc1ncc(C=O)s1 | 173 to 175 |
| CC1C(=O)N(c2ccccc2)C(=S)N1c1ccc(Oc2ccccc2)cc1 (configuration not stated) | 141 |
| CC(C)C(c1ccc(N)c([N+](=O)[O-])c1)n1cncn1 (configuration not stated) | 206 |
| CCOC(=O)Cn1cc(C#N)nn1 | 47 to 48 |
| CC(=O)Oc1ccccc1C1SC[C@@H](C(=O)O)N1C(=O)CCSC(C)=O (some centres not stated) | 144 to 145 |
| CN1CCN2c3ccc([N+](=O)[O-])cc3C(c3cccs3)=NCC2C1 (configuration not stated) | 174 to 175 |
| COc1cc2c(cc1Nc1ncc(Cl)c(Nc3cccc(OCC#N)c3)n1)CCOC(=O)N2C | 227 to 229 |
| CN(C(=O)Nc1ccc(OC(F)(F)F)cc1)c1nc(OCC(F)(F)F)cc(OCC(F)(F)F)n1 | 123 to 125 |
| CSCC(=O)Nc1cccc(C(F)(F)F)c1 | 75 to 77 |
| CNC(=O)c1cc2[nH]c(C)nc2c2c1CCC1(Cc3ccccc3C1)N2 | 240 to 241 |
| CCN(CC)c1cc(=S)ss1 | 93 |
| COc1cc2c(cc1OC)N(C(C)=O)CC(N(C)C)C2 (configuration not stated) | 145 to 147 |
| CC(C)c1[nH]nc(C(N)=O)c1[N+](=O)[O-] | 179 to 180 |
| CC(=O)Nc1ccc(C=CC2=NNC(=O)C(C)(C)C2)cc1 | 255 to 257 |
| O=C1c2cccc([N+](=O)[O-])c2C(=O)N1CC(=O)N1c2ccccc2N(Cc2ccccc2)C(=O)[C@H]2CCC[C@H]21 (relative stereo) | 238 to 240 |
| O=c1[nH]c2ccccc2c2cc(CO)nn12 | 286 to 288 |
| Cc1ccc(N2C(=S)SCC2(C)O)nc1 (configuration not stated) | 108 |

| SMILES | melting point [°C] |
| --- | --- |
| CC(=O)OCCCCn1cnc2c(Cl)nc(Nc3ccccc3)nc21 | 195 to 197 |
| COc1cc(C(=O)O)c(-c2c(C(=O)O)cc(OC)c3c2OCO3)c(OC)c1OC | 258 to 259 |
| CCOC(=O)c1c[nH]c(=S)n1C1CCc2cc(F)cc(F)c2C1 (configuration not stated) | 187 to 189 |
| NNc1ccc([N+](=O)[O-])cc1F | 119 to 121 |
| Cc1[nH]c2ccccc2c1CCN1CCN(NC(=O)c2ccccc2)CC1 | 130 to 133 |
| OC(C1=NCCN1)(c1ccccc1)c1cccc(Cl)n1 (configuration not stated) | 154 to 156 |
| CC(C)N(C(=O)c1ccc(OCCCCCOc2ccc(C(N)=NO)cc2)cc1O)C(C)C | 195 to 197 |
| CCOc1cn(C2CC(O)C(CO)O2)c(=O)[nH]c1=O (configuration not stated) | 179 to 181 |
| CCC(OC1OC(COC(C)=O)C(OC(C)=O)C(OC(C)=O)C1OC(C)=O)C(=O)O (configuration not stated) | 98 to 100 |
| O=C(N[C@@H](Cc1ccc(-c2c(O)cccc2O)cc1)C(=O)O)c1c(Cl)cccc1Cl | 238 |
| CC(=C(c1ccc(F)cc1)c1ccc(F)cc1)c1nnnn1C | 146 to 147 |
| COc1cc2nc(N3CCN(C)CC3)n3ncnc3c2cc1OC | 194 to 196 |
| COC(=O)c1cc(NC(C)=O)ccc1OC | 132 to 134 |
| O=C1CCN(c2ccncc2)CC1 | 101 to 104 |
| CC(=O)OC1CCC2(C)C(=CCC3C2C(OC(C)=O)CC2(C)C3CCC2(O)C(=O)CO)C1 (configuration not stated) | 231 to 233 |
| C#CCOc1cc(-n2c(OC)nc(C(F)(F)F)cc2=O)c(F)cc1Cl | 108 to 110 |
| O=[N+]([O-])C(=Cc1ccoc1)C1=NCCN1Cc1ccc(Cl)nc1 | 175 to 176 |
| O=C1OCc2c1cc1ccc3c(c1c2-c1ccc(OC(F)(F)F)cc1)OCO3 | 222 to 225 |
| COc1ccc(C2=C(c3c4n(c5ccccc35)CCC(COC(C)=O)C4)C(=O)OC2=O)cc1 (configuration not stated) | 79 to 82 |
| CC1(C)CCNC(=O)C(Cl)(Cl)C1 | 108 to 110 |
| Cc1nccn1-c1ccc(N)cc1C(F)(F)F | 117 to 119 |
| Cc1ncn(-c2cc(F)ccc2CNC(=O)c2nc3n(c(=O)c2OCc2ccccc2)CCN3c2ccccc2)n1 | 147 to 148 |
| CCCCCCCCCCCCCCOc1cccc(CO)c1 | 49 to 50 |

| SMILES | melting point [°C] |
| --- | --- |
| COc1ccc(CCCCCCCCO)cc1 | 47 to 49 |
| O=C(O)CCCNC(=O)c1n[nH]cc1NC(=O)c1ccccn1 | 227 to 228 |
| N#Cc1ccc(Cn2cncc2CCCO)cc1 | 121 to 123 |
| CC(C)CN1C(=O)C(C)(C)C(=O)Nc2ccc(C#N)cc21 | 219 to 220 |
| CCCCc1oc2ccccc2c1-c1ncc(-c2ccc3cc(OCC#N)ccc3c2)o1 | 127 |
| O=C(O)c1ccc2c(c1)C(=O)CCC2 | 210 to 215 |
| Cc1cc(NS(=O)(=O)c2cc(C3(O)CCC(=O)N3C)ccc2Cl)cc(C(C)(C)C)c1O (configuration not stated) | 120 |
| COc1ccc(S(=O)(=O)N(CC(N)=O)c2ccc(F)cc2C(O)c2ccccc2Cl)cc1OC (configuration not stated) | 232 |
| COc1ccc(C(=O)O)c(Cl)c1Cl | 224 to 226 |
| CCOC(=O)C(Cc1ccccc1)(Cc1ccc([N+](=O)[O-])cc1)C(=O)OCC | 70 to 71 |
| Cc1cc2c(cc1-c1cc(C=C3SC(=O)NC3=O)ccc1OC(F)(F)F)C(C(C)C)=CCC2(C)C | 179 |
| COc1cc(C(=O)O)ccc1Cn1cc(CC(C)C(=O)N(C)C)c2ccc(C(=O)NCC3CCCC3)cc21 (configuration not stated) | 120 to 122 |
| Nc1c(NCCCN(Cc2ccccc2)c2ccccn2)c(=O)c1=O | 228 to 231 |
| Cc1cccc2c1CCCCC2=O | 54 to 55 |
| COC(=O)c1cnc2cccc(OC)c2c1 | 102 |
| Cc1nc2cccc3n(CCCCNS(=O)(=O)C(F)(F)F)c(=O)c1n23 | 195 to 196 |
| Cc1ccc(C(=O)c2cc(-c3ccc(Cl)cc3)c(N3CCOCC3)s2)cc1 | 190 |
| CCN(CC)CCNC(=O)N1CCCC(S(=O)(=O)c2ccc(C)cc2)C1 (configuration not stated) | 116 to 118 |
| Cc1cc(N2CCN(CCOc3ccccc3)C2=O)sc1C(=O)NCc1cccnc1 | 78 to 80 |
| Cc1ccc(-c2c(NS(=O)(=O)c3ccc(C(C)(C)C)cc3)ncnc2OCCOc2ccc(-c3nnn[nH]3)cc2)cc1 | 165 to 166 |
| NS(=O)(=O)c1ccc(-n2nc(C(F)(F)F)cc2-c2ccc(-c3ccco3)cc2)c(F)c1 | 174 |
| CCOc1cc(OCc2ccc(CN(C)C)o2)cc2c1C(=O)N(COC(=O)c1c(Cl)cccc1Cl)S2(=O)=O | 157 to 158 |
| Nc1ncc(-c2nc(N3CCOCC3)c3sc(NS(=O)(=O)c4cccc(C=CC(=O)NO)c4)cc3n2)cn1 | > 300 |

Second part, the compound after the results:

| melting point [°C] | SMILES |
| --- | --- |
| 162 to 163 | CCCCOc1cc(C(=O)O)cc([N+](=O)[O-])c1C(=O)c1ccc(C)cc1 |
| 132 to 134 | Clc1ccc2c3c(cccc13)C(NCCCCCn1ccnc1)=N2 |
| 124 to 125 | CCOC(=O)C1=NN(c2cccc3ccccc23)C(C(=O)OCC)=NN1c1ccccc1 |
| 102 to 103 | CCOC(=O)c1c(C)cc2ncn(-c3ccccc3)c(=O)c2c1C |
| 185 to 189 | COc1ccc(OC)c(S(=O)(=O)n2c(CCC(=O)O)cc3cc(Cl)ccc32)c1 |
| 132 to 134 | CN(C)CCOc1ccc(-c2n[nH]c3ncccc23)cc1 |
| 122 to 123 | COC(=O)c1ccccc1CSc1c(O)cc(-c2ccccc2)oc1=O |
| 83 to 85 | Brc1ccc(OCc2ccc3ccccc3c2)nc1 |
| 86 to 89 | CN(C(=O)OC(C)(C)C)c1cc(OCc2ccccc2)ccc1N |
| 263 to 265 | Nc1c(-c2cc(Cl)ccc2O)c2c(Cl)c(Cl)ccc2[nH]c1=O |
| 151 to 155 | Cc1c(CCNC(=O)OC(C)(C)C)c2cc(S(=O)(=O)c3ccccc3)ccc2n1C |
| 215 to 216 | CN1C(=O)C2=C(c3ccc(Br)cc3)OC(=O)C2=C1c1ccccc1 |
| 103 to 104 | O=Cc1c2ccccc2cc2cccc(SCCO)c12 |
| 48 to 51 | CCCC1(C(=O)NCCCCCO)c2ccccc2-c2ccccc21 |
| 240 to 242 | CS(=O)c1ccc(-c2nc3ncccc3[nH]2)cc1 (configuration not stated) |
| 145 | CCC1=NC2(O)c3cc(-c4ccc(C(F)(F)F)cc4)ccc3CC2S1 (configuration not stated) |
| 149 | COc1ccc2[nH]cc(/C(C#N)=C/c3cccc(C#N)c3)c2c1 |

| melting point [°C] | SMILES |
| --- | --- |
| 155 to 157 | Clc1cccc(-c2ccc(Cl)nn2)c1 |
| 108 to 110 | O=C1C(Cc2ccccc2Cl)c2cc([N+](=O)[O-])ccc2ON1CCO (configuration not stated) |
| 159 to 160 | CCCCC(=O)Nc1c(C(=O)c2cccc(Cl)c2)[nH]c2cc(Cl)ccc12 |
| 54 to 57 | COP(=O)(Cc1c(C)ccc2ccccc12)OC |
| 169 | N#Cc1cnn2c(C(F)(F)F)cc(-c3ccccc3Cl)nc12 |
| 100 to 101 | Clc1ccc(C2C=Cc3cc(Br)cnc3O2)cc1Cl (configuration not stated) |
| 201 to 203 | CC1(c2cccc(OCc3ccccc3)c2)C(=O)Nc2cc(Cl)cc(Cl)c2C1=O (configuration not stated) |
| 152 to 154 | CCOC(=O)C1=C(C)NC(=O)N(C(=O)CC)C1c1cccc([N+](=O)[O-])c1 (configuration not stated) |
| 250 to 252 | c1ccc(-c2cc3c(nn2)-c2ccccc2CN3)cc1 |
| 162 to 164 | CCC1(CC)c2cc(Br)ccc2-c2ccc(I)cc21 |
| 176 to 178 | CN1C=C(N2CCCC2)c2ccc3ccccc3c2S1(=O)=O |
| 81 | CCOP(=O)(C=Cc1ccc(N)cc1)OCC |
| 223 to 224 | COc1ccc2c(c1)C(c1ccccc1)N(S(C)(=O)=O)N=C2Cc1c(Cl)cncc1Cl (configuration not stated) |
| 173 | COC(=O)Cc1cc(C(=O)c2ccc(F)cc2)ccc1O |
| 88.6 to 89.1 | Cc1ccc(-c2nccc3c(Cl)cccc23)cc1 |
| 222 to 224 | O=C1c2cccc3cccc(c23)C(=O)N1CCI |
